Data taken from patent US12378220B2, “WNT signaling pathway inhibitors for treatments of disease” (University of Maryland, Baltimore, priority 2016, dated 2025).
Like-named read-outs stand apart in the source and are kept apart here.

Assays:
[1] = system: WiDr, SW620, HT29, HEK_LTV, and T84 cell lines; experiment: cell proliferation and growth inhibition assay (CCK-8), cell line panel; type: cell-based, human; details: 72 h, FIG. 12
Description: Cell Proliferation and Growth Inhibition Assay. HT-29, HCT-116, WiDr, SW620, SW480, T84, A549, MCF-7, HepG2, Hela cells were cultured in respective growth medium. Cells of log phase were used. 3000-5000 cells/well were seeded in 96-well plates with a 100 μL volume. After 24 h, Compounds were dissolved to […] with DMSO, and a 3-fold serial dilution of the compounds from 5×10^−5 M to […] was performed. 2 μL of compound solution was added to 998 μL of growth medium, the mixture was vortexed sufficiently. 100 μL of the mixture was correspondingly added to the 96-well plate. 2 μL DMSO instead of compound solution was used as the 0% inhibitor control. After coincubation for 72 h, the old medium was removed and 100 μL of 10% CCK-8 in culture medium was added. 2 h later the plates were read in the microplate reader (Bio-Rad) at 450 nm. The data was calculated using Graph Pad Prism version 5.0. The IC50 were fitted using a nonlinear regression model with a sigmoidal dose response.

Wnt/β-catenin pathway = experiment: dual-luciferase TCF/LEF reporter assay, LiCl-activated, HEK293 cells; type: cell-based; details: Homo sapiens; for activity at 1 µM: HEK293, 24 h, At 1 μM concentration, remaining Wnt signaling activity, read-out: RLU % (Relative Light Units in reporter gene assays); for IC50: HEK293, read-out: IC50
Description: Lithium chloride (LiCl), which has been previously established as an activator of the Wnt/β-catenin pathway through its direct and indirect effects on GSK3β was used for pathway activation. The inhibition of the Wnt/β-catenin pathway by a compound may be determined after its incubation with cells for 24 hours.
The assay provided herein is a dual-luciferase assay to measure Wnt/β-catenin pathway activation using a TCF/LEF responsive reporter construct similar to that described previously (Thorne et al., 2010).

For “1-(2-Fluorophenyl)-5-methyl-N-(quinolin-2-yl)-1H-pyrazole-4-carboxamide [YW2035]”, the growth inhibitory activity [1] was “micromolar growth inhibitory activity”.
`Cc1c(C(=O)Nc2ccc3ccccc3n2)nnn1-c1ccc(F)cc1[N+](=O)[O-]` [YW1171, 1-(4-Fluoro-2-nitrophenyl)-5-methyl-N-(quinolin-2-yl)-1H-1,2,3-triazole-4-carboxamide] was tested, and the activity at 1 µM (Wnt/β-catenin pathway) was 77.8% and the IC50 (Wnt/β-catenin pathway; Table 3, values in μM) was 5 µM.
For `Cc1c(C(=O)Nc2ccc3ccccc3n2)nnn1-c1cccc(Cl)c1` [YW1173, 1-(3-Chlorophenyl)-5-methyl-N-(quinolin-2-yl)-1H-1,2,3-triazole-4-carboxamide], the activity at 1 µM (Wnt/β-catenin pathway) was 26.3% and the IC50 (Wnt/β-catenin pathway; Table 3, values in nM) was 0.731 µM.
In the case of `Cc1ccc(-n2nnc(C(=O)Nc3ccc4ccccc4n3)c2C)c(C)c1` [YW1179, 1-(2,4-Dimethylphenyl)-5-methyl-N-(quinolin-2-yl)-1H-1,2,3-triazole-4-carboxamide], the activity at 1 µM (Wnt/β-catenin pathway) is reported as 10.6% and the IC50 (Wnt/β-catenin pathway; Table 3, values in nM) is reported as 0.13 µM.
Work on `Cc1c(C(=O)Nc2ccc3ccccc3n2)nnn1-c1ccccc1-c1ccccc1` [YW1180, 1-([1,1′-biphenyl]-2-yl)-5-methyl-N-(quinolin-2-yl)-1H-1,2,3-triazole-4-carboxamide] yielded an activity at 1 µM (Wnt/β-catenin pathway) of 104% and an IC50 (Wnt/β-catenin pathway; Table 3, values in μM) of 52 µM.
`CC(=O)c1ccccc1-n1nnc(C(=O)Nc2ccc3ccccc3n2)c1C` [YW1181, 1-(2-Acetylphenyl)-5-methyl-N-(quinolin-2-yl)-1H-1,2,3-triazole-4-carboxamide] was tested, and the activity at 1 µM (Wnt/β-catenin pathway) was 18.1% and the IC50 (Wnt/β-catenin pathway; Table 3, values in nM) was 0.814 µM.
In the case of `Cc1c(C(=O)Nc2ccc3ccccc3n2)nnn1-c1ccccc1C(N)=O` [YW1182, 1-(2-Carbamoylphenyl)-5-methyl-N-(quinolin-2-yl)-1H-1,2,3-triazole-4-carboxamide], the activity at 1 µM (Wnt/β-catenin pathway) is reported as 89.9% and the IC50 (Wnt/β-catenin pathway; Table 3, values in μM) is reported as > 100 µM.
With `Cc1ccccc1-n1nnc(C(=O)Nc2nc(-c3ccccc3)cs2)c1C` [YW1183, 5-Methyl-N-(4-phenylthiazol-2-yl)-1-(o-tolyl)-1H-1,2,3-triazole-4-carboxamide] the activity at 1 µM (Wnt/β-catenin pathway) was 90.8% and the IC50 (Wnt/β-catenin pathway; Table 3, values in μM) was 22 µM.
For `CCc1c(C(=O)Nc2ccc3ccccc3n2)nnn1-c1ccccc1F` [YW2018, 5-Ethyl-1-(2-fluorophenyl)-N-(quinolin-2-yl)-1H-1,2,3-triazole-4-carboxamide], the activity at 1 µM (Wnt/β-catenin pathway) was 2.3% and the IC50 (Wnt/β-catenin pathway; Table 3, values in nM) was 0.047 µM.
Compound `CC(C)c1c(C(=O)Nc2ccc3ccccc3n2)nnn1-c1ccccc1F` [YW2020, 1-(2-Fluorophenyl)-5-isopropyl-N-(quinolin-2-yl)-1H-1,2,3-triazole-4-carboxamide] has an activity at 1 µM (Wnt/β-catenin pathway) of 17.7% and an IC50 (Wnt/β-catenin pathway; Table 3, values in nM) of 0.177 µM.
`Cc1c(C(=O)Nc2ccc3ccccc3n2)cnn1C(C)(C)C` [YW2049, 1-(Tert-butyl)-5-methyl-N-(quinolin-2-yl)-1H-pyrazole-4-carboxamide] was tested, and the growth inhibitory activity [1] was “micromolar growth inhibitory activity”.
